Data set [1] deals with T1, human EP4 receptor (Homo sapiens, UniProt P35408). As to the kind of experiment: Assay of calcium current inhibition on EP4 receptor (FLIPR, 293 cells). It is filed as cell-based. More on the design: expressed in transfected cells; host or cells: 293 cells. The following applies: for IC50: 293 cells overexpressing human EP4, PGE2 at EC80, FLIPR. As to the method:
The cells were rapidly thawed in a 37° C. water bath, centrifuged, resuspended, and counted. The cell suspensions were seeded at 20 μL/well in two 384-well plates (20,000 cells/well) and placed in an incubator (a 37° C., 5% CO2) overnight. Preparation of a 2× Fluo-4 Direct™ (Invitrogen, Cat #F10471) loading buffer: 77 mg of probenecid was added to 1 mL of a FLIPR buffer, with a concentration of 250 mM. 10 mL of FLIPR buffer and 0.2 mL of probenecid (250 mM) were added to each tube of Fluo-4 Direct™ crystals (F10471).
One of the cell plates was taken out of the incubator and the medium was removed. 20 μL of an assay buffer and 2× Fluo-4 Direct™ non-wash loading buffer were added to the 384-well cell culture plate to a final volume of 40 μL, and then the culture plate was incubated in an incubator (a 37° C., 5% CO2) for 50 minutes, and then at room temperature for 10 minutes, and then the plate was placed in the FLIPR. 10 μL of the buffer was transferred to the cell plate and the fluorescence signal was read. The agonist PGE2 was formulated as a 10 mM stock in a DMSO solvent and 10 concentration points of the 6× working solution were serially diluted using the buffer. 10 μL of the agonist PGE2 was transferred to the cell plate, the fluorescence signal was read to calculate EC80 value.
The agonist PGE2 was prepared at 6× EC80 concentration and the compound to be tested was formulated as a 10 mM stock solution in the DMSO solvent and 10 concentration points of the 6× compound working solution was serially diluted using the buffer.
Another cell plate was taken to remove media and 20 μL of the assay buffer and 2× Fluo-4 Direct™ non-wash loading buffer were added; the cell plate was incubated in a 37° C., 5% CO2 incubator for 50 minutes and room temperature for 10 minutes and then placed in the FLIPR. 10 μL of the compound working solution, DMSO, and the EP4 full antagonist were transferred to the cell plate and the fluorescence signal was read. […] Inhibition (%)=100−(test group−EP4 full antagonist group)/(DMSO group−EP4 full antagonist group)*100
Compound's IC50 value of EP4 calcium current inhibition was calculated based on the inhibition rate at different concentrations of the compound.

Data set [2] has as its target T2, recombinant human EP4 receptor membrane protein (Homo sapiens, UniProt P35408).
T2 construct: expressed in transfected cells; host or cells: membranes of 293 cells overexpressing human EP4 receptor
As to the kind of experiment: Radioligand binding assay for EP4 receptor ([3H]-PGE2). Particulars: [3H]-PGE2 1.5 nM; membrane protein 20 μg/well. As to the method:
The compounds to be tested and PGE2 were formulated as 10 mM stocks in a DMSO solvent, and then 8 concentration points of 4× working solution were serially diluted using a buffer (50 mM HBSS, 0.1% BSA, 500 mM NaCl). […] Unifilter-96 GF/C filter plate (Perkin Elmer) was soaked with 0.5% BSA, 50 μL per well, for at least 30 min at room temperature. After binding was complete, the reaction mixture was harvested through a GF/C plate using a Perkin Elmer Filtermate Harvester, followed by washing the filter plate and drying the filter plate for 1 hour at 50° C. After drying, the bottom of the filter plate wells was sealed using a Perkin Elmer Unifilter-96 sealing tape, and 50 μL of MicroScint™-20 cocktail (Perkin Elmer) was added to seal the top of the filter plate. The ^3H counts captured on the filter were read using a Perkin Elmer MicroBeta2 Reader.
The IC50 and Ki values of the compounds determined by the radioligand binding assay for EP4 receptor were calculated based on the inhibition rate of the different concentrations of the compounds.

The target of data set [3] is T1, human EP4 receptor. As to the kind of experiment: Assay for EP4 antagonistic effect (cAMP, PGE2-stimulated CHO stable cell line).
Protocol: After trypsinization, cells were resuspended in a buffer (1×HBSS, 0.1% BSA, 20 mM HEPES, and 500 μM IBMX) and 8000 cells were seeded per well in 384-well plates in a seeding volume of 15 μL. A working solution the compound with a 8× concentration was prepared with an experimental buffer, and then 2.5 μL of the working solution of the compound with 8× concentration was added to the 384-well plate, respectively, and incubated at 37° C. for 30 min. An agonist PGE2 working solution with 8× concentration of (4 nM) was prepared with the experimental buffer and 2.5 μL per well was added to the 384-well plate (the final PGE2 concentration was 0.5 nM) and incubated at 37° C. for 30 min. After the reaction was completed, the amount of cAMP in the cells was quantified according to the method in the instructions of the cAMP test kit (Perkin Elmer, Cat #TRF0263). The antagonistic effects (IC50 value) were calculated for the test compounds.
Data set [4] can be described thus: Rat pharmacokinetic assay. The data set is classed as in vivo, male SD rats. The following applies: male, SD, plasma, rat, intravenous administration 1 mg/kg. As to the method:
(§1) In a mouse pharmacokinetic assay, male ICR mice (20 g to 25 g) were selected and fasted overnight. Three mice were selected and intragastrically administered with 5 mg/kg of the corresponding compound. The blood of the mice was collected before the administration and at 15 min, 30 min, 1 h, 2 h, 4 h, 8 h, 24 h after the administration. Another 3 mice were intravenously administered with 1 mg/kg of the corresponding compound, and the blood thereof was collected before the administration and at 15 min, 30 min, 1 h, 2 h, 4 h, 8 h, 24 h after the administration. The blood samples were centrifuged at 6800 g at 2° C. to 8° C. for 6 minutes, and plasma was collected and stored at −80° C. The plasma was taken at respective time point, mixed with 3-5 times the amount of acetonitrile containing internal standard, vortexed for 1 minute, centrifuged at 4° C. for 10 minutes at 13000 rpm, supernatant was added 3 times the amount of water, and the appropriate mixture was taken for LC-MS/MS analysis. The primary pharmacokinetic parameters were analyzed with a WinNonlin 7.0 software, with non-compartmental model.
In a rat pharmacokinetic assay, male SD rats (180 g to 240 g) were selected and fasted overnight. Three rats were intragastrically administered with 5 mg/kg of the corresponding compound. Another 3 rats were intravenously administered with 1 mg/kg of the corresponding compound. The following operations were the same as the mouse pharmacokinetic assay.

Data set [5] is described as follows: Mouse pharmacokinetic assay. It is filed as in vivo, male ICR mice. Particulars: male, ICR, plasma, oral gavage administration 5 mg/kg. As to the method:
as §1

Structures are written as SMILES.

T2 sequence (P35408 whole entry): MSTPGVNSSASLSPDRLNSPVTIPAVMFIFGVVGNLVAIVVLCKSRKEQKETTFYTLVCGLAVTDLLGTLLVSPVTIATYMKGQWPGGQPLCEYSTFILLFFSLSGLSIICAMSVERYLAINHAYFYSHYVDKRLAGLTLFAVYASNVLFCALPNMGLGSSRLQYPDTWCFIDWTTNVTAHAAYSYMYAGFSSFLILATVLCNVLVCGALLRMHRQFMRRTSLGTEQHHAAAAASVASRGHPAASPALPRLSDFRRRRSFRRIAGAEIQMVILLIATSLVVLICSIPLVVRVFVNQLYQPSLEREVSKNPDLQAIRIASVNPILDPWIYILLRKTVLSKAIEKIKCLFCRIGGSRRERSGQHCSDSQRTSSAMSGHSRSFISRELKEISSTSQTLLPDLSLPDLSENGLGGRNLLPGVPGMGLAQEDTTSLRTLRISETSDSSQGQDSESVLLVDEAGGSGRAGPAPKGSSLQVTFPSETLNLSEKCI
T1 sequence (P35408 whole entry): as above

Consider `CCc1cc(Oc2c(C(=O)N[C@@H](C)c3ccc(C(=O)O)cc3)c(C(F)F)nn2C)ccc1C` [Compound I-17, (S)-4-(1-(3-(difluoromethyl)-5-(3-ethyl-4-methylphenoxy)-1-methyl-1H-pyrazole-4-carboxamido)ethyl)benzoic Acid], for which the half-maximal inhibitory concentration (IC50) in data set [1] was determined as 18 nM.
As for `CC(c1cccc(Oc2c(C(=O)N[C@@H](C)c3ccc(C(=O)O)cc3)c(C(F)F)nn2C)c1)C(F)(F)F` (stereo partly drawn) [Compound I-15, 4-((1S)-1-(3-(difluoromethyl)-1-methyl-5-(3-(1,1,1-trifluoropropan-2-yl)phenoxy)-1H-pyrazole-4-carboxamido)ethyl)benzoic Acid], the figures for the IC50 in data set [1] and in data set [2] were 18 nM and 12 nM, respectively. Further, in data set [2], the Ki was found to be 6.6 nM.
On to `C[C@H](NC(=O)c1c(C(F)F)nn(C)c1Oc1cccc(SC(F)(F)F)c1)c1ccc(C(=O)O)cc1` [Compound I-29, (S)-4-(1-(3-(difluoromethyl)-1-methyl-5-(3-((trifluoromethyl)thio)phenoxy)-1H-pyrazole-4-carboxamido)ethyl)benzoic Acid], for which, in data set [3], the concentration for half-maximal inhibition (IC50) was found to be 14 nM.
With `C[C@H](NC(=O)c1c(C(F)F)nn(C)c1Oc1cccc(C2CC2)c1)c1ccc(C(=O)O)cc1` [Compound I-3, (S)-4-(1-(5-(3-cyclopropylphenoxy)-3-(difluoromethyl)-1-methyl-1H-pyrazole-4-carboxamido)ethyl)benzoic Acid], the concentration for half-maximal inhibition (IC50) in data set [1] stood at 3 nM; in data set [3] it was 2.8 nM; in data set [2], 9 nM. The inhibitory constant (Ki) in data set [2] is 4.9 nM.
On to `CC(C)c1cccc(Oc2c(C(=O)N[C@@H](C)c3ccc(C(=O)O)cc3)c(C(F)F)nn2C)c1` [Compound I-4, (S)-4-(1-(3-(difluoromethyl)-5-(3-isopropylphenoxy)-1-methyl-1H-pyrazole-4-carboxamido)ethyl)benzoic Acid], for which, in data set [1], the concentration for half-maximal inhibition (IC50) came out at 4 nM. Besides, the “increase of inhibition effect on the calcium current of EP4 compared with the control compound” value in data set [1] (compared with the control compound) is “more than 5 time”. In addition, in data set [2], the half-maximal inhibitory concentration (IC50) came to 7.4 nM and the Ki was 4 nM.
As for `CCc1cc(F)cc(Oc2c(C(=O)N[C@@H](C)c3ccc(C(=O)O)cc3)c(C(F)F)nn2C)c1` [Compound I-12, (S)-4-(1-(3-(difluoromethyl)-5-(3-ethyl-5-fluorophenoxy)-1-methyl-1H-pyrazole-4-carboxamido)ethyl)benzoic Acid], the 50% inhibitory concentration (IC50) in data set [1] is 19 nM.
Consider `CCc1cccc(Oc2c(C(=O)N[C@@H](C)c3ccc(C(=O)O)cc3)c(C)nn2C)c1` [Compound I-9, (S)-4-(1-(5-(3-ethylphenoxy)-1,3-dimethyl-1H-pyrazole-4-carboxamido)ethyl) benzoic Acid], for which half-maximal inhibition in data set [3] (IC50) was put at 29 nM.
In the case of `CC(F)c1cccc(Oc2c(C(=O)N[C@@H](C)c3ccc(C(=O)O)cc3)c(C(F)F)nn2C)c1` (stereo partly drawn) [Compound I-13, 4-((1S)-1-(3-(difluoromethyl)-5-(3-(1-fluoroethyl)phenoxy)-1-methyl-1H-pyrazole-4-carboxamido)ethyl)benzoic Acid], the IC50 in data set [1] stood at 10 nM.
Regarding `C[C@H](NC(=O)c1c(C(F)F)nn(C)c1Oc1cccc(OCC(F)(F)F)c1)c1ccc(C(=O)O)cc1` [Compound I-33, (S)-4-(1-(3-(difluoromethyl)-1-methyl-5-(3-(2,2,2-trifluoroethoxy)phenoxy)-1H-pyrazole-4-carboxamido)ethyl)benzoic Acid], the IC50 in data set [1] was determined as 12 nM. In addition, in data set [2], the 50% inhibitory concentration (IC50) is 31 nM and the Ki worked out at 17 nM. Also, in data set [4], the exposure AUC(0-t) came out at 4670 ng·h/mL, the clearance is 3.67 mL/min/kg and the half-life was 541 min. The Vd in data set [4] (read-out: Vz) is 2.72 L/kg. Further, in data set [5], the AUC(0-t) came out at 8290 ng·h/mL, the concentration peaked (Cmax) at 2530 ng/mL, the time to peak (Tmax) was 19.8 min and the half-life is 493 min.
With `C[C@H](NC(=O)c1c(C(F)F)nn(C)c1Oc1ccc(-c2ccccc2)cc1)c1ccc(C(=O)O)cc1` [Compound I-26, (S)-4-(1-(5-([1,1′-biphenyl]-4-yloxy)-3-(difluoromethyl)-1-methyl-1H-pyrazole-4-carboxamido)ethyl)benzoic Acid], the IC50 in data set [1] is 8.5 nM.
Regarding `Cc1nn(C)c(Oc2cccc(C(C)(F)F)c2)c1C(=O)N[C@@H](C)c1ccc(C(=O)O)cc1` [Compound I-8, (S)-4-(1-(5-(3-(1,1-difluoroethyl)phenoxy)-1,3-dimethyl-1H-pyrazole-4-carboxamido)ethyl)benzoic Acid], in data set [1], the IC50 was 16.5 nM.
As to `C[C@H](NC(=O)c1c(C(F)F)nn(C)c1Oc1cccc(S(F)(F)(F)(F)F)c1)c1ccc(C(=O)O)cc1` [Compound I-28, (S)-4-(1-(3-(difluoromethyl)-1-methyl-5-(3-(pentafluoro-λ^6-sulfanyl)phenoxy)-1H-pyrazole-4-carboxamido)ethyl)benzoic Acid], the IC50 in data set [1] was determined as 8 nM; in data set [3], 5.7 nM.
For `CC(O)c1cc(Oc2c(C(=O)N[C@@H](C)c3ccc(C(=O)O)cc3)c(C(F)F)nn2C)ccc1F` (stereo partly drawn) [Compound I-23, 4-((1S)-1-(3-(difluoromethyl)-5-(4-fluoro-3-(1-hydroxyethyl)phenoxy)-1-methyl-1H-pyrazole-4-carboxamido)ethyl)benzoic Acid], in data set [2], the 50% inhibitory concentration (IC50) turned out to be 13 nM and the Ki was 7 nM.
As to `Cc1cc(Oc2c(C(=O)N[C@@H](C)c3ccc(C(=O)O)cc3)c(C(F)F)nn2C)cs1` [Compound I-41, (S)-4-(1-(3-(difluoromethyl)-1-methyl-5-((5-methylthiophen-3-yl)oxy)-1H-pyrazole-4-carboxamido)ethyl)benzoic Acid], the half-inhibitory concentration (IC50) in data set [1] is 16 nM.
Turning to `C[C@H](NC(=O)c1c(C(F)F)nn(C)c1Oc1ccc(F)c(C(C)(F)F)c1)c1ccc(C(=O)O)cc1` [Compound I-10, (S)-4-(1-(5-(3-(1,1-difluoroethyl)-4-fluorophenoxy)-3-(difluoromethyl)-1-methyl-1H-pyrazole-4-carboxamido)ethyl)benzoic Acid], the 50% inhibitory concentration (IC50) in data set [1] is 14 nM; in data set [2], 4 nM. For the same compound, the inhibition constant Ki in data set [2] was found to be 2.2 nM.
`CCc1cc(Oc2c(C(=O)N[C@@H](C)c3ccc(C(=O)O)cc3)c(C(F)F)nn2C)ccc1Cl` [Compound I-11, (S)-4-(1-(5-(4-chloro-3-ethylphenoxy)-3-(difluoromethyl)-1-methyl-1H-pyrazole-4-carboxamido)ethyl)benzoic Acid]: the IC50 was determined as 8 nM in data set [1] and 6.8 nM in data set [2]. For the same compound, the inhibitory constant (Ki) in data set [2] turned out to be 3.7 nM.

These data come from patent publication US12643889B2, “Synthesis of novel EP4 antagonist and use in cancer and inflammation” (Wuhan Humanwell Innovative Drug Research And Development …, priority 2020, dated 2026).
